Results reported in publication PMC8397403, “Physiologically Based Pharmacokinetic Modeling of Transporter-Mediated Hepatic Disposition of Imaging Biomarker Gadoxetate in Rats” (Molecular Pharmaceutics, 2021).
Like-named read-outs stand apart in the source and are kept apart here.

What was measured:
[1] = test system: plated rat hepatocytes; experiment: In vitro uptake kinetics of gadoxetate in plated rat hepatocytes (mechanistic hepatocyte model); format: in vitro ADME; settings: for % passive: CLpassive,u/(CLactive,u + CLpassive,u); for CLactive,u: Vmax/Km,u; for Km: read-out: Km,u
Procedure: Male adult Sprague-Dawley rats (Charles River, Margate, Kent, UK) were housed in groups of two in individually ventilated cages with free access to food (Chow rat and mouse diet) and fresh drinking water. The designated rat housing facility maintained a controlled temperature (20 ± 3 °C), humidity (40–70%), and 12 h light/dark cycle conditions. All animal protocols were approved by the University of Manchester review committee and adhered to the UK Home Office Animals (Scientific Procedures) Act (1986). Rats (250–300 g) were sacrificed using CO2 overdose followed by cervical dislocation in the morning of the study day. The kinetics experiment, as described below, was performed using n = 4 animals. A minimum of n = 3 was required to explore interanimal variability in kinetic parameters, with surplus hepatocytes also used from an additional animal that was part of a separate project. Primary rat hepatocytes, prepared as described below, were used to evaluate test compound cytotoxicity/effect on hepatocyte attachment (n = 3), preliminary assays to determine uptake assay conditions (n = 4), and for assays that were failed, for example, poor cell viability (n = 6 animals).
Isolation of hepatocytes using ex vivo collagenase perfusion was performed, followed by cell count and viability assessment, as previously described.[34]−[36] Cell preparations with viability <85% were not used for experiments. Hepatocytes were seeded at 240,000 cells per well in collagen I-coated 24-well plates, and incubated for at least 2 h at 37 °C and 95% air/5% CO2 to allow cell attachment to the plate.[36]
Uptake experiments were performed at 37 °C with duplicate incubations per condition, as previously described.[35] Uptake of gadoxetate (Primovist injection solution, Bayer, Germany) was evaluated following incubation (0.5–150 min) at nominal media concentrations of 0.01–10 mM. Extended incubation timepoints (up to 150 min) were selected based on previous publications[35] and existing in-house data to enable characterization of the steady-state intracellular concentration. Uptake of pitavastatin (Sequoia Research Products Ltd, Pangbourne, UK) (0.2 μM) in the absence and presence of a pan-inhibitor of uptake transporters, rifamycin SV (Sigma-Aldrich, Poole, UK) (100 μM), was also evaluated for 0.5–2 min as positive control for functional transporter activity. Following sample preparation including addition of internal standard (Table S1), gadoxetate and pitavastatin in cell samples, and gadoxetate in media samples, were quantified by liquid chromatography–tandem mass spectrometry (LC–MS/MS). LC–MS/MS quantification was performed using selective reaction monitoring (SRM) against calibration standards; only standards within 30% of nominal concentration were included. The protein content of plated rat hepatocytes was measured using the Pierce BCA Protein Assay Kit (Thermo Fisher Scientific, Paisley, UK).
In vitro hepatocyte uptake (i.e., the amount of gadoxetate in cell as quantified by LC–MS/MS) (pmol) at each time point was normalized for cellularity using the measured protein content and assuming that 10^6 hepatocytes contain 1 mg protein.[34] For gadoxetate, the data from each animal were used for simultaneous estimation of in vitro kinetic parameters using a mechanistic hepatocyte model reported previously.[35] It should be noted that CLpassive,u implies nonsaturable clearance equal in both directions under experimental conditions (0.01–10 mM). [drawing 1] 1 where Km,u represents the unbound Michaelis constant (μM); Vmax the maximum transport rate (pmol/min/10^6 cells); and fu,cell the fraction unbound in cell and nonsaturable, bidirectional clearance (CLpassive,u; μL/min/10^6 cells). ccell and cmedium represent concentrations in cell and medium compartments, respectively, and Vcell represents the cell volume.
Intracellular concentrations were calculated assuming a hepatocyte cell volume of 3.9 μL/10^6 cells.[35] […]

[2] = design: method as in PMID 32851735; settings: cited from earlier work; for Ex vivo relaxivity r1, blood: spleen assumed equal to blood

## CCOc1ccc(C[C@@H](CN(CCN(CC(=O)[O-])CC(=O)[O-])CC(=O)[O-])N(CC(=O)[O-])CC(=O)[O-])cc1.[Gd+3].[H+].[H+] [gadoxetate]
[1]; CLactive,u/(CLactive,u + CLpassive,u), animal 1
  maximum % active: 97%
[1]; CLactive,u/(CLactive,u + CLpassive,u), animal 2
  maximum % active: 94%
[1]; CLactive,u/(CLactive,u + CLpassive,u), animal 3
  maximum % active: 91%
[1]; CLactive,u/(CLactive,u + CLpassive,u), animal 4
  maximum % active: 94%
[1]; animal 1
  % passive: 3%
  CLactive,u: 3.07 μL/min/10^6 cells
  CLpassive,u: 0.091 μL/min/10^6 cells
  Vmax: 350.4 pmol/min/10^6 cells
  Km: 114 µM
[1]; animal 2
  % passive: 6%
  CLactive,u: 3.20 μL/min/10^6 cells
  CLpassive,u: 0.202 μL/min/10^6 cells
  Vmax: 370.9 pmol/min/10^6 cells
  Km: 116 µM
[1]; animal 3
  % passive: 9%
  CLactive,u: 2.78 μL/min/10^6 cells
  CLpassive,u: 0.274 μL/min/10^6 cells
  Vmax: 221.7 pmol/min/10^6 cells
  Km: 79.8 µM
[1]; animal 4
  % passive: 6%
  CLactive,u: 3.20 μL/min/10^6 cells
  CLpassive,u: 0.203 μL/min/10^6 cells
  Vmax: 368.8 pmol/min/10^6 cells
  Km: 115 µM
[1]; average of n = 4 animals
  % passive: 6%
  CLactive,u: 3.06 μL/min/10^6 cells
  CLpassive,u: 0.193 μL/min/10^6 cells
  Vmax: 327.95 pmol/min/10^6 cells
[1]; average of n = 4 animals (CV %)
  Km: 106 µM
[1]; contribution of active saturable uptake to total uptake, average of n = 4 animals
  maximum % active: 94%
[1]; fraction unbound in cell (fu,cell), average of n = 4 animals (CV %)
  fu,liv,cell: 0.648
[1]; fraction unbound in cell (fu,cell), average of n = 4 animals (CV %), listed as Gadoxetate
  fu,liv,cell: 0.65 (24%)
[1]; fraction unbound in cell, animal 1
  fu,liv,cell: 0.759
[1]; fraction unbound in cell, animal 2
  fu,liv,cell: 0.709
[1]; fraction unbound in cell, animal 3
  fu,liv,cell: 0.418
[1]; fraction unbound in cell, animal 4
  fu,liv,cell: 0.704
[2]; 4.7 T
  Ex vivo relaxivity r1, hepatocytes: 7.6 s^–1/mM
  Ex vivo relaxivity r1, blood: 6.4 s^–1/mM
[2]; 7 T
  Ex vivo relaxivity r1, hepatocytes: 6 s^–1/mM
  Ex vivo relaxivity r1, blood: 6.2 s^–1/mM
